# Assay results published in ChEMBL document CHEMBL3885861, “Open TG-GATES”.
# Organism: Rattus norvegicus
# Experiment: Open TG-GATES - Regimen: Daily Repeat
# Type: toxicity, organism-based, Sprague-Dawley
# Design: regimen Daily Repeat, gender Male, age 6 weeks
# Settings: in vivo, po, route gavage; for APTT / Bas / Eos / Fbg / Hb / Ht / Lym / MCH / MCHC / MCV / Mono / Neu / PT / Plat / RBC / Ret / WBC: tissue Blood; for KIDNEY_L / KIDNEY_R / KIDNEY_TOTAL: tissue Kidney; for LIVER: tissue Liver; for ALP / ALT / AST / BUN / CRE / DBIL / GLC / IP / K / LDH / Na / PL / RALB / TBIL / TC / TP / gamma-GTP / TG: tissue Plasma
# [1] = 0 mg/kg, 72 h, dose level Control, time 3 day
# [2] = 0 mg/kg, […], dose level Control, time 7 day
# [3] = 0 mg/kg, […], dose level Control, time 14 day
# [4] = 0 mg/kg, […], dose level Control, time 28 day
# [5] = 30 mg/kg, 72 h, dose level Low, time 3 day
# [6] = 30 mg/kg, […], dose level Low, time 7 day
# [7] = 30 mg/kg, […], dose level Low, time 14 day
# [8] = 30 mg/kg, […], dose level Low, time 28 day
smiles,measurement,setting,value
Clc1ccccc1CN1CCc2sccc2C1 [TICLOPIDINE],TERMINAL_BW,[1],230.2 g
same,APTT,[1],20.4 s
same,Bas,[1],0.6%
same,Eos,[1],1%
same,Fbg,[1],211 mg/dL
same,Hb,[1],13.6 g/dL
same,Ht,[1],38.2%
same,Lym,[1],77.6%
same,MCH,[1],21.9 pg
same,MCHC,[1],35.8%
same,MCV,[1],61.3 fL
same,Mono,[1],3.2%
same,Neu,[1],17%
same,PT,[1],11.7 s
same,Plat,[1],127.8 x10_4/uL
same,RBC,[1],622.6 x10_4/ul
same,Ret,[1],6.2%
same,WBC,[1],129 x10_2/uL
same,KIDNEY_L,[1],1.1 g
same,KIDNEY_R,[1],1 g
same,KIDNEY_TOTAL,[1],2.1 g
same,LIVER,[1],11.1 g
same,ALP,[1],1033.4 IU/L
same,ALT,[1],42.8 IU/L
same,AST,[1],70.2 IU/L
same,BUN,[1],17 mg/dL
same,CRE,[1],0.4 mg/dL
same,DBIL,[1],0.07 mg/dL
same,GLC,[1],205.4 mg/dL
same,IP,[1],8.6 mg/dL
same,K,[1],4.4 meq/L
same,LDH,[1],128.8 IU/L
same,Na,[1],141.6 meq/L
same,PL,[1],148.6 mg/dL
same,RALB,[1],3.4 g/dL
same,TBIL,[1],0.1 mg/dL
same,TC,[1],69.8 mg/dL
same,TP,[1],5.5 g/dL
same,gamma-GTP,[1],1.2 IU/L
same,TERMINAL_BW,[2],252.6 g
same,TERMINAL_BW,[3],313.6 g
same,TERMINAL_BW,[4],400.8 g
same,APTT,[2],20.7 s
same,Bas,[2],1%
same,Eos,[2],1%
same,Fbg,[2],224.2 mg/dL
same,Hb,[2],14 g/dL
same,Ht,[2],38.4%
same,Lym,[2],81.6%
same,MCH,[2],21.3 pg
same,MCHC,[2],36.4%
same,MCV,[2],58.5 fL
same,Mono,[2],2.4%
same,Neu,[2],13.4%
same,PT,[2],11.4 s
same,Plat,[2],127 x10_4/uL
same,RBC,[2],658 x10_4/ul
same,Ret,[2],4.7%
same,WBC,[2],103.5 x10_2/uL
same,APTT,[3],20.6 s
same,Bas,[3],1%
same,Eos,[3],0.8%
same,Fbg,[3],220.6 mg/dL
same,Hb,[3],14.3 g/dL
same,Ht,[3],39.5%
same,Lym,[3],78.8%
same,MCH,[3],21.1 pg
same,MCHC,[3],36.2%
same,MCV,[3],58.1 fL
same,Mono,[3],2.8%
same,Neu,[3],16%
same,PT,[3],11.6 s
same,Plat,[3],116.1 x10_4/uL
same,RBC,[3],681.2 x10_4/ul
same,Ret,[3],4.3%
same,WBC,[3],121.8 x10_2/uL
same,APTT,[4],18.1 s
same,Bas,[4],0.8%
same,Eos,[4],1%
same,Fbg,[4],233.4 mg/dL
same,Hb,[4],15.5 g/dL
same,Ht,[4],41.4%
same,Lym,[4],80.2%
same,MCH,[4],20.9 pg
same,MCHC,[4],37.5%
same,MCV,[4],55.7 fL
same,Mono,[4],2%
same,Neu,[4],15.4%
same,PT,[4],11.5 s
same,Plat,[4],106.8 x10_4/uL
same,RBC,[4],743.4 x10_4/ul
same,Ret,[4],2.7%
same,WBC,[4],97 x10_2/uL
same,KIDNEY_L,[2],1.1 g
same,KIDNEY_R,[2],1 g
same,KIDNEY_TOTAL,[2],2.1 g
same,KIDNEY_L,[3],1.2 g
same,KIDNEY_R,[3],1.2 g
same,KIDNEY_TOTAL,[3],2.4 g
same,KIDNEY_L,[4],1.4 g
same,KIDNEY_R,[4],1.3 g
same,KIDNEY_TOTAL,[4],2.7 g
same,LIVER,[2],11.3 g
same,LIVER,[3],13.2 g
same,LIVER,[4],16.3 g
same,ALP,[2],1176 IU/L
same,ALT,[2],44.8 IU/L
same,AST,[2],81.6 IU/L
same,BUN,[2],15 mg/dL
same,CRE,[2],0.4 mg/dL
same,DBIL,[2],0.066 mg/dL
same,GLC,[2],195.4 mg/dL
same,IP,[2],6.9 mg/dL
same,K,[2],3.9 meq/L
same,LDH,[2],144.6 IU/L
same,Na,[2],141.4 meq/L
same,PL,[2],153.4 mg/dL
same,RALB,[2],3.4 g/dL
same,TBIL,[2],0.1 mg/dL
same,TC,[2],77.8 mg/dL
same,TG,[2],81.6 mg/dL
same,TP,[2],5.7 g/dL
same,gamma-GTP,[2],1.2 IU/L
same,ALP,[3],840.4 IU/L
same,ALT,[3],33.6 IU/L
same,AST,[3],70.2 IU/L
same,BUN,[3],17.2 mg/dL
same,CRE,[3],0.4 mg/dL
same,DBIL,[3],0.056 mg/dL
same,GLC,[3],215.8 mg/dL
same,IP,[3],7.5 mg/dL
same,K,[3],4.4 meq/L
same,LDH,[3],155.2 IU/L
same,Na,[3],142 meq/L
same,PL,[3],138 mg/dL
same,RALB,[3],3.4 g/dL
same,TBIL,[3],0.098 mg/dL
same,TC,[3],65.2 mg/dL
same,TG,[3],114 mg/dL
same,TP,[3],5.6 g/dL
same,gamma-GTP,[3],1.2 IU/L
same,ALP,[4],742.8 IU/L
same,ALT,[4],29.6 IU/L
same,AST,[4],58.6 IU/L
same,BUN,[4],18.2 mg/dL
same,CRE,[4],0.5 mg/dL
same,DBIL,[4],0.068 mg/dL
same,GLC,[4],214.4 mg/dL
same,IP,[4],6.7 mg/dL
same,K,[4],3.8 meq/L
same,LDH,[4],168.2 IU/L
same,Na,[4],141.6 meq/L
same,PL,[4],133.2 mg/dL
same,RALB,[4],3.6 g/dL
same,TBIL,[4],0.1 mg/dL
same,TC,[4],63 mg/dL
same,TG,[4],126.8 mg/dL
same,TP,[4],6.1 g/dL
same,gamma-GTP,[4],0.8 IU/L
same,TERMINAL_BW,[5],232 g
same,APTT,[5],19.7 s
same,Bas,[5],0.6%
same,Eos,[5],1%
same,Fbg,[5],223.6 mg/dL
same,Hb,[5],13.6 g/dL
same,Ht,[5],38.5%
same,Lym,[5],74.2%
same,MCH,[5],21.5 pg
same,MCHC,[5],35.2%
same,MCV,[5],61.1 fL
same,Mono,[5],3%
same,Neu,[5],20.2%
same,PT,[5],11.6 s
same,Plat,[5],129 x10_4/uL
same,RBC,[5],631.6 x10_4/ul
same,Ret,[5],6.2%
same,WBC,[5],88 x10_2/uL
same,KIDNEY_L,[5],1 g
same,KIDNEY_R,[5],1 g
same,KIDNEY_TOTAL,[5],2 g
same,LIVER,[5],11.3 g
same,ALP,[5],1106 IU/L
same,ALT,[5],36.4 IU/L
same,AST,[5],67.8 IU/L
same,BUN,[5],14.8 mg/dL
same,CRE,[5],0.4 mg/dL
same,DBIL,[5],0.072 mg/dL
same,GLC,[5],212 mg/dL
same,IP,[5],7.5 mg/dL
same,K,[5],4.1 meq/L
same,LDH,[5],163.6 IU/L
same,Na,[5],142 meq/L
same,PL,[5],155.8 mg/dL
same,RALB,[5],3.4 g/dL
same,TBIL,[5],0.1 mg/dL
same,TC,[5],75.4 mg/dL
same,TG,[5],100.8 mg/dL
same,TP,[5],5.6 g/dL
same,gamma-GTP,[5],1 IU/L
same,TERMINAL_BW,[6],262.3 g
same,TERMINAL_BW,[7],314 g
same,TERMINAL_BW,[8],386.1 g
same,APTT,[6],18.1 s
same,Bas,[6],0.8%
same,Eos,[6],1%
same,Fbg,[6],231.2 mg/dL
same,Hb,[6],14.1 g/dL
same,Ht,[6],39.3%
same,Lym,[6],76%
same,MCH,[6],21.3 pg
same,MCHC,[6],35.7%
same,MCV,[6],59.7 fL
same,Mono,[6],3.2%
same,Neu,[6],18.2%
same,PT,[6],11.2 s
same,Plat,[6],117.8 x10_4/uL
same,RBC,[6],658.6 x10_4/ul
same,Ret,[6],5.8%
same,WBC,[6],104.1 x10_2/uL
same,APTT,[7],21.4 s
same,Bas,[7],0.8%
same,Eos,[7],0.8%
same,Fbg,[7],221.2 mg/dL
same,Hb,[7],14.1 g/dL
same,Ht,[7],39.2%
same,Lym,[7],78.6%
same,MCH,[7],21.2 pg
same,MCHC,[7],36.1%
same,MCV,[7],58.7 fL
same,Mono,[7],2.6%
same,Neu,[7],16.8%
same,PT,[7],11.6 s
same,Plat,[7],116.9 x10_4/uL
same,RBC,[7],668.2 x10_4/ul
same,Ret,[7],4.7%
same,WBC,[7],124.8 x10_2/uL
same,APTT,[8],18 s
same,Bas,[8],0.6%
same,Eos,[8],1.2%
same,Fbg,[8],223.6 mg/dL
same,Hb,[8],14.9 g/dL
same,Ht,[8],40.4%
same,Lym,[8],82%
same,MCH,[8],19.9 pg
same,MCHC,[8],37%
same,MCV,[8],53.7 fL
same,Mono,[8],2%
same,Neu,[8],13.8%
same,PT,[8],11.7 s
same,Plat,[8],106 x10_4/uL
same,RBC,[8],752.8 x10_4/ul
same,Ret,[8],2.9%
same,WBC,[8],115.9 x10_2/uL
same,KIDNEY_L,[6],1.1 g
same,KIDNEY_R,[6],1.1 g
same,KIDNEY_TOTAL,[6],2.2 g
same,KIDNEY_L,[7],1.3 g
same,KIDNEY_R,[7],1.2 g
same,KIDNEY_TOTAL,[7],2.5 g
same,KIDNEY_L,[8],1.3 g
same,KIDNEY_R,[8],1.3 g
same,KIDNEY_TOTAL,[8],2.7 g
same,LIVER,[6],12.2 g
same,LIVER,[7],14.3 g
same,LIVER,[8],15.6 g
same,ALP,[6],861.2 IU/L
same,ALT,[6],38.4 IU/L
same,AST,[6],71.8 IU/L
same,BUN,[6],15.4 mg/dL
same,CRE,[6],0.4 mg/dL
same,DBIL,[6],0.068 mg/dL
same,GLC,[6],204.4 mg/dL
same,IP,[6],7.6 mg/dL
same,K,[6],3.9 meq/L
same,LDH,[6],167.6 IU/L
same,Na,[6],142.4 meq/L
same,PL,[6],150.8 mg/dL
same,RALB,[6],3.5 g/dL
same,TBIL,[6],0.1 mg/dL
same,TC,[6],78.4 mg/dL
same,TP,[6],5.7 g/dL
same,gamma-GTP,[6],1 IU/L
same,ALP,[7],887.6 IU/L
same,ALT,[7],36.4 IU/L
same,AST,[7],68.8 IU/L
same,BUN,[7],16.8 mg/dL
same,CRE,[7],0.4 mg/dL
same,DBIL,[7],0.058 mg/dL
same,GLC,[7],225.4 mg/dL
same,IP,[7],7.7 mg/dL
same,K,[7],4.2 meq/L
same,LDH,[7],174.2 IU/L
same,Na,[7],142.2 meq/L
same,PL,[7],154.8 mg/dL
same,RALB,[7],3.3 g/dL
same,TBIL,[7],0.1 mg/dL
same,TC,[7],74.4 mg/dL
same,TG,[7],120.6 mg/dL
same,TP,[7],5.7 g/dL
same,gamma-GTP,[7],1 IU/L
same,ALP,[8],647.4 IU/L
same,ALT,[8],37 IU/L
same,AST,[8],64.2 IU/L
same,BUN,[8],15.8 mg/dL
same,CRE,[8],0.5 mg/dL
same,DBIL,[8],0.07 mg/dL
same,GLC,[8],200.8 mg/dL
same,IP,[8],7.2 mg/dL
same,K,[8],3.8 meq/L
same,LDH,[8],145 IU/L
same,Na,[8],142 meq/L
same,PL,[8],158.4 mg/dL
same,RALB,[8],3.5 g/dL
same,TBIL,[8],0.1 mg/dL
same,TC,[8],78.4 mg/dL
same,TG,[8],133.8 mg/dL
same,TP,[8],5.8 g/dL
same,gamma-GTP,[8],1 IU/L
